According to ChEMBL document CHEMBL3779890, “Novel prodrugs with a spontaneous cleavable guanidine moiety” (Bioorg Med Chem Lett, 2016):
Converted amounts (≈) assume the structure as drawn.

Experiments:
[1] = Solubility of the compound in water at room temperature after 15 mins by HPLC analysis; format: physicochemical
[2] = Prodrug conversion in PBS assessed as half life for 50% release of Quinine in pH 7.4 at 37 degC after 1 hr by ESI-mass spectrometry; format: ADME; conditions: buffer, pH 7.4, 1 h
[3] = Stability of the compound in methanol-CH3CN at 4 degC after 1 month by HPLC analysis; format: physicochemical; conditions: 730.5 h
[4] = Prodrug conversion in PBS assessed as half life for 50% release of Phenytoin in pH 7.4 at 37 degC after 1 hr by ESI-mass spectrometry; format: ADME; conditions: buffer, pH 7.4, 1 h
[5] = Prodrug conversion in PBS assessed as half life for 50% release of 2-Aminobenzimidazole in pH 7.4 at 37 degC after 1 hr by ESI-mass spectrometry; format: ADME; conditions: buffer, pH 7.4, 1 h
[6] = Prodrug conversion in PBS assessed as half life for 50% release of ritonavir in pH 7.4 at 37 degC after 1 hr by ESI-mass spectrometry; format: ADME; conditions: buffer, pH 7.4, 1 h
[7] = Prodrug conversion in PBS assessed as half life for 50% release of Quinine in pH 7.4 at 37 degC by ESI-mass spectrometry; format: ADME; conditions: buffer, TDE = time-dependent effect
[8] = Prodrug conversion in PBS assessed as half life for 50% release of Sulfathiazole in pH 7.4 at 37 degC after 1 hr by ESI-mass spectrometry; format: ADME; conditions: buffer, pH 7.4, 1 h

Question: With `O=C1NC(=O)C(c2ccccc2)(c2ccccc2)N1` [PHENYTOIN] as the compound, how does the solubility at 0.25 h [1] read?
Answer: 6.3 µg/mL (≈ 25 µM)

Question: Which t1/2 [2] does the source give for `C=C[C@@H]1CN2CC[C@H]1C[C@H]2[C@H](OC(=O)CCNC(=N)N)c1ccnc2ccc(OC)cc12.O=C(O)C(F)(F)F` here?
Answer: 1.1 min

Question: And the Stability [3]?
Answer: Stable

Question: And the solubility at 0.25 h [1]?
Answer: > 10000 µg/mL

Question: Which t1/2 [4] does the source give for `CN(CC(=O)N1C(=O)NC(c2ccccc2)(c2ccccc2)C1=O)C(=N)N.O=C(O)C(F)(F)F` here?
Answer: 0.78 min

Question: For `N=C(N)NCC(=O)Nc1nc2ccccc2[nH]1.O=C(O)C(F)(F)F`, which t1/2 [5] is on record?
Answer: 38 min

Question: With `CC(C)c1nc(CN(C)C(=O)N[C@H](C(=O)N[C@@H](Cc2ccccc2)C[C@H](O)[C@H](Cc2ccccc2)NC(=O)OCc2cncs2)C(C)C)cs1` [RITONAVIR] as the compound, how does the t1/2 [6] read?
Answer: 42 h

Question: Which results are given for `C=C[C@@H]1CN2CC[C@H]1C[C@H]2[C@H](OC(=O)CCCN)c1ccnc2ccc(OC)cc12.O=C(O)C(F)(F)F`?
Answer: t1/2 [2]: 102 min; Drug metabolism [7]: tde

Question: With `Nc1ccc(S(=O)(=O)Nc2nccs2)cc1.O=C(O)C(F)(F)F` as the compound, how does the solubility at 0.25 h [1] read?
Answer: 1.4 µg/mL

Question: What does the source list for `C[C@H](NC(=N)N)C(=O)Nc1ccc(S(=O)(=O)Nc2nccs2)cc1.O=C(O)C(F)(F)F`?
Answer: Stability [3]: Stable; solubility at 0.25 h [1]: 7100 µg/mL; t1/2 [8]: 40 min

Question: For `C=C[C@@H]1CN2CC[C@H]1C[C@H]2[C@H](OC(=O)CNC(=N)N)c1ccnc2ccc(OC)cc12.O=C(O)C(F)(F)F`, which t1/2 [2] is on record?
Answer: < 1 min

Question: Which results are given for `N=C(N)NCC(=O)N1C(=O)NC(c2ccccc2)(c2ccccc2)C1=O.O=C(O)C(F)(F)F`?
Answer: Stability [3]: Stable; solubility at 0.25 h [1]: 10200 µg/mL; t1/2 [4]: 13 min

Question: For `C[C@H](NC(=N)N)C(=O)N1C(=O)NC(c2ccccc2)(c2ccccc2)C1=O.O=C(O)C(F)(F)F`, which t1/2 [4] is on record?
Answer: 1.1 min
